# What was measured:
# Format in all cases: in vivo
# [1] = tested on: human subject suffering from osteoarthritis; assay: Example B: capsule treatment of a subject suffering from osteoarthritis; settings: capsule containing 70 mg daily for 5 years, 90 kg human
# Protocol: A capsule for oral administration, according to the present invention, is made comprising:
# A human subject weighing 90 kg (198 lbs.), suffering from osteoarthritis, is treated by a method of this invention. Specifically, for 5 years, a capsule containing 70 mg of the compound of Example 3 is administered daily to said subject.
# [2] = tested on: human subject suffering from rheumatoid arthritis; assay: Example A: tablet treatment of a subject suffering from rheumatoid arthritis; settings: tablet with 15 mg compound, three tablets per day orally for 2 years, 60 kg human
# Protocol: A tablet composition for oral administration, according to the present invention, is made comprising:
# A human subject weighing 60 kg (132 lbs), suffering from rheumatoid arthritis, is treated by a method of this invention. Specifically, for 2 years, a regimen of three tablets per day is administered orally to said subject.
# asthma sufferer = assay: Example E: inhalation aerosol for asthma; settings: 5.0% w/v inhalation aerosol, 0.01 mL sprayed into the mouth while inhaling
# Protocol: An inhalation aerosol composition, according to the present invention, is made comprising: An asthma sufferer sprays 0.01 mL via a pump actuator into the mouth while inhaling.
smiles,measurement,setting,value
"CC(C)(C)OC(=O)N1CCC(C(NS(=O)(=O)c2ccc(Oc3ccccc3)cc2)C(=O)O)CC1 (stereo not drawn) [Example 3, 4-[Carboxy-(4-phenoxy-benzenesulfonylamino)-methyl]-piperidine-1-carboxylic acid tert-butyl ester]","erosion/fibrillation of the articular cartilage via x-ray, arthroscopy and/or MRI at the end of treatment",[1],no further advancement of erosion/fibrillation of the articular cartilage
"COCCOC(=O)N1CCC(C(NS(=O)(=O)c2ccc(-c3ccc(OC)cc3)cc2)C(=O)O)CC1 (stereo not drawn) [Example 31, 4-[Carboxy-(4′-methoxy-biphenyl-4-sulfonylamino)-methyl]-piperidine-1-carboxylic acid 2-methoxy-ethyl ester]","patient examination at the end of the treatment period (inflammation, mobility, pain)",[2],"reduced inflammation, and improved mobility without concomitant pain"
"COc1ccc(-c2ccc(S(=O)(=O)NC3(C(=O)O)CCNCC3)cc2)cc1 [Example 56, 4-(4′-Methoxy-biphenyl-4-sulfonylamino)-piperidine-4-carboxylic acid]",asthma symptoms,asthma sufferer,Asthma symptoms are diminished

# Reference: patent US20030171400A1, “Heterocyclic side chain containing metalloprotease inhibitors” (priority 2000, published 2003)
